# Counter-ions that a name gives are not always drawn.
# Assay: in vitro
# Conditions: human, hek293t cells
row,SMILES,"viability at 48 h, 25 µM [%]"
1,"Cc1nnnn1-c1ccc(F)c(NC(=O)CCl)c1 [6-E13, 2-chloro-N-[2-fluoro-5-(5-methyl-1H-1,2,3,4-tetrazol-1-yl)phenyl]acetamide]",1.24
2,"O=C(CCl)NCCc1cccc2ccccc12 [6-E14, 2-chloro-N-[2-(naphthalen-1-yl)ethyl]acetamide]",4.85
3,"CCN(C(=O)CCl)c1ccccc1 [6-E15, 2-chloro-N-ethyl-N-phenylacetamide]",1.62
4,"CCCC(=O)N1CCC(NC(=O)CCl)c2ccccc21 (stereo not shown) [6-E16, N-(1-butanoyl-1,2,3,4-tetrahydroquinolin-4-yl)-2-chloroacetamide]",17.5
5,"CC1CCN(Cc2csc(NC(=O)CCl)n2)CC1 [6-E17, 2-chloro-N-{4-[(4-methylpiperidin-1-yl)methyl]-1,3-thiazol-2-yl}acetamide hydrochloride]",0.0269
6,"O=C(CCl)NCC1(c2ccc(F)cc2)CCCC1 [6-E18, 2-chloro-N-{[1-(4-fluorophenyl)cyclopentyl]methyl}acetamide]",5.22
7,"O=C(CCl)NCCc1ncc(F)cn1 [6-E19, 2-chloro-N-[2-(5-fluoropyrimidin-2-yl)ethyl]acetamide]",104
8,"O=C(CCl)NCc1ccc(NC(=O)C2CC2)cc1 [6-E20, N-{4-[(2-chloroacetamido)methyl]phenyl}cyclopropanecarboxamide]",2.09
9,"CC(Cl)C(=O)NC(C)(C)c1ccc(F)cc1F (stereo not shown) [6-E21, 2-chloro-N-[2-(2,4-difluorophenyl)propan-2-yl]propanamide]",93.5
10,"O=C(CCl)NCc1ccc(N2CCOCC2)nc1 [6-E22, 2-chloro-N-{[6-(morpholin-4-yl)pyridin-3-yl]methyl}acetamide]",8.26
11,"Cc1cc(C)cc(OCCN(C)C(=O)CCl)c1 [6-F03, 2-chloro-N-[2-(3,5-dimethylphenoxy)ethyl]-N-methylacetamide]",0.538
12,"O=C(CCl)NCC(=O)N1CCC(Cc2ccccc2)CC1 [6-F04, N-[2-(4-benzylpiperidin-1-yl)-2-oxoethyl]-2-chloroacetamide]",21.7
13,"CC(Cl)C(=O)N1CCC(c2nc(N(C)C)no2)CC1 (stereo not shown) [6-F05, 2-chloro-1-{4-[3-(dimethylamino)-1,2,4-oxadiazol-5-yl]piperidin-1-yl}propan-1-one]",108
14,"CC(Cl)C(=O)NCCc1ccc(F)cc1 (stereo not shown) [6-F06, 2-chloro-N-[2-(4-fluorophenyl)ethyl]propanamide]",112
15,"CC(Cl)C(=O)NCC1CN(c2ccc(Cl)cc2)CCO1 (stereo not shown) [6-F07, 2-chloro-N-{[4-(4-chlorophenyl)morpholin-2-yl]methyl}propanamide]",101
16,"O=C(CCl)N1CCSc2c([nH]c3ccccc23)C1 [6-F08, 2-chloro-1-{2H,3H,4H,5H,6H-[1,4]thiazepino[6,7-b]indol-4-yl}ethan-1-one]",1.68
17,"CC(Cl)C(=O)NCc1nc(-c2cccc(C#N)c2)c[nH]1 (stereo not shown) [6-F09, 2-chloro-N-{[4-(3-cyanophenyl)-1H-imidazol-2-yl]methyl}propanamide]",113
18,"Cc1cccc(C)c1NC(=O)CNC(=O)C(C)Cl (stereo not shown) [6-F10, 2-chloro-N-{[(2,6-dimethylphenyl)carbamoyl]methyl}propanamide]",106
19,"Cc1noc(C)c1CC(=O)N1CCN(C(=O)C(C)Cl)CC1 (stereo not shown) [6-F11, 2-chloro-1-{4-[2-(3,5-dimethyl-1,2-oxazol-4-yl)acetyl]piperazin-1-yl}propan-1-one]",106
20,"COc1ccc(NC(=O)C(C)Cl)cc1OC (stereo not shown) [6-F12, 2-chloro-N-(3,4-dimethoxyphenyl)propanamide]",109
21,"CC(CNC(=O)C(C)Cl)Oc1cccc(Cl)c1 (stereo not shown) [6-F13, 2-chloro-N-[2-(3-chlorophenoxy)propyl]propanamide]",103
22,"CC(Cl)C(=O)NCc1nnnn1CC1CC1 (stereo not shown) [6-F14, 2-chloro-N-{[1-(cyclopropylmethyl)-1H-1,2,3,4-tetrazol-5-yl]methyl}propanamide]",115
